{
  "source": "paper PMC8745263",
  "about": "(International Journal of Molecular Sciences, 2021)",
  "key": {"[1]": {"molecular_target": "T1, APEH (partially purified from human red blood cells) (Homo sapiens, UniProt P13798)", "T1 construct": "incubated with APEH partially purified from human blood cells; from tissue; host or cells: human red blood cells (erythrocyte hemolysate from donors' blood)", "T1 sequence (P13798 1-732)": "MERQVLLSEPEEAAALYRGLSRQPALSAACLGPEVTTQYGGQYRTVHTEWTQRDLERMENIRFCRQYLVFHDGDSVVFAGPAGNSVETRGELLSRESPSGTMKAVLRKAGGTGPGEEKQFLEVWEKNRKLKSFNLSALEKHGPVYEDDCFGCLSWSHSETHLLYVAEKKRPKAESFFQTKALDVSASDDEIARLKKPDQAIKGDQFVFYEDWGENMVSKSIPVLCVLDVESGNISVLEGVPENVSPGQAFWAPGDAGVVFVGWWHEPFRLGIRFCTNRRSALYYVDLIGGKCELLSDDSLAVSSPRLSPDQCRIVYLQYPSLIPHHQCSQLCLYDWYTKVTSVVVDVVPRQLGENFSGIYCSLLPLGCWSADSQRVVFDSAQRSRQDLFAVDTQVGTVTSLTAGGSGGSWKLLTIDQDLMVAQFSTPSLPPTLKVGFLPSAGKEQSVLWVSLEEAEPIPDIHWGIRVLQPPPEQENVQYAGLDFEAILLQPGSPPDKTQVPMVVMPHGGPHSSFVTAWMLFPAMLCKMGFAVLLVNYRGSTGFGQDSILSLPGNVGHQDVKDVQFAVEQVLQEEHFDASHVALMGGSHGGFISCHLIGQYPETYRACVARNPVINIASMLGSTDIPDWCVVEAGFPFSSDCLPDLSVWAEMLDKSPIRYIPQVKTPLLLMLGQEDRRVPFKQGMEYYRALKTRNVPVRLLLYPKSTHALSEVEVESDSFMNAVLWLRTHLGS", "assay": "APEH enzyme inhibition assay with substrate Ac-Met-AMC", "type": "biochemical", "conditions": "inhibitor 62 µM, APEH sample 0.7 μg, pre-incubated 30 min at 37 °C, then Ac-Met-AMC added; data not shown", "procedure": "Human APEH was obtained as a partially purified product from the red blood cells by a combination of anion exchange and gel filtration chromatography as described. The purification procedure was monitored by SDS-PAGE analysis of active pooled fractions (Supplementary Figure S3). Specifically, each peak fraction eluted from the gel filtration column was assayed with the specific APEH substrate Ac-Met-AMC and analyzed by Western blotting to assess the identity of the enzyme, using the commercial APEH from porcine liver (APEHpl) as control (Supplementary Figure S4A,B). The molecular mass determined by SDS-PAGE of the partially purified protein was 75 kDa, in agreement with that predicted on the basis of the amino acid sequence. Moreover, gel filtration chromatography on Superdex 200 column allowed estimating a molecular mass for the native APEH of […] as calculated by the calibration curve (Supplementary Figure S4A), confirming that the enzyme is a homo-tetramer composed of four 75 kDa subunits, as already reported.\nBlood samples were taken from donors using syringes with heparin. […] Enzyme purification was monitored using Ac-Met-7-amino-4-methylcoumarin (AMC) as substrate. Active fractions were analyzed by SDS-PAGE (12%) in order to evaluate the enrichment of the protein during the various purification steps. […]"}, "APEH [2]": {"tested_on": "APEH", "assay": "APEH partially purified from human blood cells (0.7 μg, 24.000 total units) in Tris-HCl 25 mM pH 7.5", "conditions": "37 °C, up to 48 h"}, "truncated form of APEH": {"tested_on": "truncated form of APEH", "conditions": "cited from earlier work"}, "APEH [3]": {"tested_on": "APEH", "conditions": "cited from earlier work"}},
  "note": "“Also recorded” adds a separate entry of the source. Like-named read-outs stand apart in the source and are kept apart here.",
  "data": [
    {"molecule": "CC(C)CC(O)(CC(C)C)c1cnn(C(=O)N2CCCC2)n1", "note": "[AA74-1]", "values": [
      {"measurement": "inhibition of APEH activity", "setting": "[1]", "value": "totally inhibited"}
    ]},
    {"molecule": "Ac-EYM(ox)FM(ox)QKYPHTHLVQQA-NH2", "values": [
      {"measurement": "cleaved bond", "setting": "APEH [2]", "value": "H59-L60, major; also recorded: Q62-Q; also recorded: L60-V"}
    ]},
    {"molecule": "Ac-EYMFMQKYPHTHLVQQA-NH2", "values": [
      {"measurement": "not cleaved", "setting": "APEH [2]", "value": "No cleavage was observed; N.D. (not degraded) after 48 h"}
    ]},
    {"molecule": "GIVEQC(ox)C(ox)ASVC(ox)SLYQLENYC(ox)N", "values": [
      {"measurement": "cleaved bond", "setting": "truncated form of APEH", "value": "A-S and Y-Q"}
    ]},
    {"molecule": "…^205FGERALKAWSVARL ↓ SQKFPKAEF^227… …^397LGEYGFQNALIVRY ↓ TRKVPQVST^419… …^493DETYVPKAFDEKLF ↓ TFHADICTL^515…", "values": [
      {"measurement": "cleaved bond", "setting": "APEH [3]", "value": "L-S and Y-T and F-T"}
    ]}
  ]
}
